The text below walks through data of patent US5643958A, “Substituted amide derivatives” (Banyu Pharmaceutical Co., Ltd., priority 1994, dated 1997).

Assay [1] deals with farnesyl-modification of Ras protein. As to the kind of experiment: Inhibitory activities against farnesyl-modification of Ras protein in NIH3T3 cells transformed by activated ras gene. To be noted: Mus musculus, 24 hours, read-out: 50% inhibitory concentrations against farnesyl-modification of Ras protein, IC50. The format is cell-based. The procedure:
Using the compounds of the present invention, inhibitory activities against farnesyl-modification of Ras protein in NIH3T3 cells transformed by activated ras gene, were measured.
The NIH3T3 cells transformed by activated ras gene, were seeded on a culture plate and cultured for 3 days. Then, a compound of the preset invention in a predetermined concentration was added to the culture. In accordance with the method disclosed in J. Biol. Chem., vol. 268, p. 18415 (1993), the cells were cultured for 24 hours and then taken off from the plate, and the cells were dissolved. After centrifugal separation for 5 minutes under 12000 g, the supernatant was used as a cell extract. The cell extract was subjected to SDS polyacrylamide gel electrophoresis to separate farnesyl-modified Ras protein and non-farnesyl-modified Ras protein. The protein on the gel was transferred onto a nitrocellulose membrane, and an anti-Ras protein antibody was reacted as a probe (primary antibody reaction). An anti-primary antibody, a peroxidase inclusion (secondary antibody), was reacted, and then Ras protein was detected by a chemical fluorescence enhancing kit. The proportion of non-farnesyl-modified Ras protein was quantified by a densitometer and taken as the inhibitory activity.
The 50% inhibitory concentrations (IC50 values) of the compounds of the present invention against farnesyl-modification of Ras protein are shown in Table 2.

In assay [2] the target is T1, protein-farnesyl transferase (PFT) (Rattus norvegicus, UniProt Q02293+Q04631).
T1 construct: a soluble fraction of rat's brain was fractionated; from tissue; host or cells: rat brain, soluble fraction; 30-50% ammonium sulfate cut, dialysis, Q-Sepharose column
Put plainly: Inhibitory activities against protein-farnesyl transferase (PFT). The format is biochemical. The following applies: PFT derived from rat brain; 37° C.; preincubation 10 minutes, reaction 20 minutes; read-out: 50% inhibitory concentrations against PFT activities, IC50. The method, then: PFT was separated in such a manner that a soluble fraction of rat's brain was fractionated by means of 30%-50% saturated ammonium sulfate, further dialyzed and then subjected to column chromatography by Q-cephalose™ (manufactured by Pharmacia) (Reiss et al, Cell, vol. 62, p. 81-88 (1990)).
Measurement of PFT activities was conducted by using, as a prenyl acceptor, H-ras protein or a substance that biotin was added to N-terminal of a peptide corresponding to a 7 amino acid residue at C terminal of K-rasB protein (biotin-added Lys-Thr-Ser-Cys-Val-Ile-Met) and, as a prenyl doner, [^3 H]-labeled farnesylpyrophosphate (FPP) (Reiss et al, Methods: A Companion to a Methods in Enzymology, vol. 1, No. 3, p. 241-245 (1990)).
The [^3 H]-labeled farnesylpyrophosphate (22.5 Ci/mmol) was purchased from New England Nuclear Co. Non-labeled farnesylpyrophosphate was chemically synthesized from ditriethylammonium phosphate, trans-trans-farnesol and trichloroacetonitrile and purified by XAD-2-resin column and diethylaminoethylcellulose (Cornforth et al, Methods in Enzymology, vol. 15, p. 385-390 (1969)).
H-ras protein was expressed in Escherichia coli and purified (Gibbs et al, Proc. Natl. Acad. Sci., vol. 81, p. 5704-5708 (1984)).
The PFT reaction solution containing H-ras protein as the prenyl acceptor was 25 μl, and its composition was 50 mM Hepes pH7.5/50 μM ZnCl2 /5 mM MGCl2 /20 mM KCl/5mM DTT/0.6 μM all trans [^3 H]-farnesylpyrophosphate/25 μM H-ras protein/PFT derived from rat brain (Q-sephalose fraction). The reaction temperature was 37° C., the preincubation time was 10 minutes, and the reaction time was 20 minutes. […]
The enzymatic reaction product containing H-ras protein as the prenyl acceptor, was analyzed by SDS-PAGE (sodium dodecylsulfate/polyacrylamide gel electrophoresis). […]
The measurement of PFT activities using H-ras protein as the prenyl receptor, was also analyzed by a rapid separate method. […]

For another assay, the system named is NIH/ras cells. Put plainly: Antitumor effects to transformed cells (NIH/ras) using active type human Ha-ras, cells transplanted subcutaneously to a nude mouse. Type of assay: in vivo. To be noted: once a day day 1 to 6; for Growth inhibition: day 7; for Weight of tumor, Average (g) ± standard deviation: tumor weighed day 7, control 0.22 ± 0.07. An excerpt:
(Antitumor effects to transformed cells (NIH/ras) using active type human Ha-ras)
^1) Tumor inoculation: 10^6 cells were transplanted subcutaneousl
^2) Dose: Each dose was intraperitonealy administered once a day from
the first day to the sixth day after the inoculation of the cells.
^3) Weight of tumor: On the seventh day after inoculation of the
cells, the tumors were weighed.
^4) Growth inhibition: (1(average weight of tumor of the treated
group/average weight of tumor of the control group)) × 100
*and **: Statistical analysis by ttest are 5% and 1%, respectively.

The mark [3] stands for this setting: 10 mg/kg/injection intraperitoneal.

On to `C[C@H]([C@H](C/C=C/c1nc2ccccc2o1)c1ccc2c(c1)OCO2)N(Cc1ccc2ccccc2c1)C(=O)CC(C(=O)O)C(CC(=O)O)C(=O)O` (mixture of isomers) [Example 45, 4-[N-{(1RS,2RS,4E)-5-(2-benzoxazolyl)-1-methyl-2-(3,4-methylenedioxyphenyl)-4-pentenyl}-N-(2-naphthylmethyl)carbamoyl]-1,2,3-butanetricarboxylic Acid], for which the figures for the IC50 in assay [1] and in assay [2] were 7700 nM and 0.15 nM, respectively.
In the case of `C[C@H]([C@H](C/C=C/c1nc2ccccc2o1)c1ccc2c(c1)OCO2)N(Cc1ccc2ccccc2c1)C(=O)CC(CC(=O)O)(C(=O)O)C(=O)O` (racemic) [Example 46, 3-[N-{(1RS,2RS,4E)-5-(2-benzoxazolyl)-1-methyl-2-(3,4-methylenedioxyphenyl)-4-pentenyl}-N-(2-naphthylmethyl)-carbamoyl]-1,2,2-propanetricarboxylic Acid], in assay [1], the IC50 amounted to 18000 nM.
For `COC(=O)c1ccc([C@H](C/C=C/c2nc3ccccc3o2)[C@H](C)N(Cc2ccc3sccc3c2)C(=O)C[C@@H](CC(=O)O)C(=O)O)cc1` (relative stereo) [Example 34, (2R^*)-2-[N-(5-benzo[b]thienylmethyl)-N-{(1RS,2RS,4E)-5-(2-benzoxazolyl)-2-(4-methoxycarbonylphenyl)-1-methyl-4-pentenyl}carbamoylmethyl]succinic Acid], the IC50 in assay [2] worked out at 0.53 nM.
Regarding `CC(C(CC=Cc1nc2ccccc2o1)c1ccc2c(c1)OCO2)N(Cc1ccc2ccccc2c1)C(=O)C(O)CCC(=O)O` (stereo not drawn) [Example 59, Sodium 4-[N-{(1RS,2RS,4E)-5-(2-benzoxazolyl)-1-methyl-2-(3,4-methylenedioxyphenyl)-4-pentenyl}-N-(2-naphthylmethyl)]carbamoyl-4-hydroxybutanoate], the IC50 in assay [2] stood at 0.46 nM.
With `C[C@H]([C@H](C/C=C/c1nc2ccccc2o1)c1ccc2c(c1)OCO2)N(Cc1ccc2ccccc2c1)C(=O)C(O)=C(CC(=O)O)C(=O)OC(C)(C)C` [Example 69, 4-[N-{(1R,2R,4E)-5-(2-benzoxazolyl)-1-methyl-2-(3,4-methylenedioxyphenyl)-4-pentenyl}-N-(2-naphthylmethyl)carbamoyl]-3-tert-butoxycarbonyl-4-hydroxy-3-butenoic Acid], in assay [1], the IC50 was found to be 4500 nM. For the same compound, the values for the Growth inhibition in the assay with NIH/ras cells (setting [3]) and in the assay on NIH/ras cells (30 mg/kg/injection intraperitoneal) were 23% and 59%, respectively. Also, the “Weight of tumor, Average (g) ± standard deviation” value in the assay with NIH/ras cells (setting [3]) came to 0.17 ± 0.09 g; with NIH/ras cells (30 mg/kg/injection intraperitoneal, ** t-test 1%) it was 0.09 ± 0.05 g.
